Data as given in paper PMC3694096, “Development of Novel In Vivo Chemical Probes to Address CNS Protein Kinase Involvement in Synaptic Dysfunction” (PLoS ONE, 2013).
In brackets after ≈: the same amount, converted by molar mass. Read-outs that look alike come from different tables or passages of the source.

Columns and labels:
[1] = biological target: T1, CaMKIIβ (Homo sapiens, UniProt Q13554); assay: Kinome profiler screen; type: biochemical; details: at 20,000 nM inhibitor; kinase activity remaining
T1 construct: purchased Millipore KinaseProfiler

[2] = biological target: T2, CDK6/cyclinD3 (Homo sapiens, UniProt Q00534); assay: Kinome profiler screen; type: biochemical; details: at 20,000 nM inhibitor; kinase activity remaining
T2 construct: purchased Millipore KinaseProfiler

[3] = biological target: T3, CK1γ1 (Homo sapiens, UniProt Q9HCP0); assay: Kinome profiler screen; type: biochemical; details: at 20,000 nM inhibitor; kinase activity remaining
T3 construct: purchased Millipore KinaseProfiler

[4] = biological target: T4, CK1δ (Homo sapiens, UniProt P48730); assay: Kinome profiler screen; type: biochemical
T4 construct: purchased Millipore

[5] = biological target: T5, CLK2 (Homo sapiens, UniProt P49760); assay: Kinome profiler screen; type: biochemical; details: at 20,000 nM inhibitor; kinase activity remaining
T5 construct: purchased Millipore KinaseProfiler

[6] = biological target: T6, CSK (Homo sapiens, UniProt P41240); assay: Kinome profiler screen; type: biochemical; details: at 20,000 nM inhibitor; kinase activity remaining
T6 construct: purchased Millipore KinaseProfiler

[7] = biological target: T7, DDR2 (Homo sapiens, UniProt Q16832); assay: Kinome profiler screen; type: biochemical
T7 construct: purchased Millipore
T7 sequence (Q16832 22-855): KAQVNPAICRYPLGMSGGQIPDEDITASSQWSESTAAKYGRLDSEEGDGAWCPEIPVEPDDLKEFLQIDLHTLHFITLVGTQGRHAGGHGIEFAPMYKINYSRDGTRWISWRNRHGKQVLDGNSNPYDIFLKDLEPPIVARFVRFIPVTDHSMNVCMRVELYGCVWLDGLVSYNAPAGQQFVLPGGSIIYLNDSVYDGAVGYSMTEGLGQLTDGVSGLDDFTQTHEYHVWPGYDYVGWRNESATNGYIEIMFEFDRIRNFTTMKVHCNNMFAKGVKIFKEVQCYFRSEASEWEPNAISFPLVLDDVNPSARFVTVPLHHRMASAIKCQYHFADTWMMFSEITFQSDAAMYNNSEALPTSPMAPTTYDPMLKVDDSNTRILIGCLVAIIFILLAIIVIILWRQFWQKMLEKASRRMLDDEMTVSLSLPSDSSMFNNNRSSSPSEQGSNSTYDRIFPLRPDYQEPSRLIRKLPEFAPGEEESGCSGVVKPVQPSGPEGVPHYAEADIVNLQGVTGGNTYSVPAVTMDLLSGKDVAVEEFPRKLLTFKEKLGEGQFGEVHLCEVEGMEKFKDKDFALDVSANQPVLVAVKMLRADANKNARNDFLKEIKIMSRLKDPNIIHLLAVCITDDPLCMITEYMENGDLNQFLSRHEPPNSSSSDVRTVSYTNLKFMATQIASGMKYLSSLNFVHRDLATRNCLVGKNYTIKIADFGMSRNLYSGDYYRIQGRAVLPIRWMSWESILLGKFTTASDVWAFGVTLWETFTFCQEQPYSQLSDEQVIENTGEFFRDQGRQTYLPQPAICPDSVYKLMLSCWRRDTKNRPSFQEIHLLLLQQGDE

[8] = biological target: T8, DYRK2 (Homo sapiens, UniProt Q92630); assay: Kinome profiler screen; type: biochemical; details: at 20,000 nM inhibitor; kinase activity remaining
T8 construct: purchased Millipore KinaseProfiler

[9] = biological target: T9, eEF-2K (Homo sapiens, UniProt O00418); assay: Kinome profiler screen; type: biochemical; details: at 20,000 nM inhibitor; kinase activity remaining
T9 construct: purchased Millipore KinaseProfiler

[10] = biological target: T10, EGFR(L861Q) (Homo sapiens, UniProt P00533, L861Q); assay: Kinome profiler screen; type: biochemical; details: at 20,000 nM inhibitor; kinase activity remaining
T10 construct: purchased Millipore KinaseProfiler

[11] = biological target: T11, EphA4 (Homo sapiens, UniProt P54764); assay: Kinome profiler screen; type: biochemical; details: at 20,000 nM inhibitor; kinase activity remaining
T11 construct: purchased Millipore KinaseProfiler

[12] = biological target: T12, IKKα (Homo sapiens, UniProt O15111); assay: Kinome profiler screen; type: biochemical; details: at 20,000 nM inhibitor; kinase activity remaining
T12 construct: purchased Millipore KinaseProfiler

[13] = biological target: T13, JAK3 (Homo sapiens, UniProt P52333); assay: Kinome profiler screen; type: biochemical; details: at 20,000 nM inhibitor; kinase activity remaining
T13 construct: purchased Millipore KinaseProfiler

[14] = biological target: T14, MELK (Homo sapiens, UniProt Q14680); assay: Kinome profiler screen; type: biochemical; details: at 20,000 nM inhibitor; kinase activity remaining
T14 construct: purchased Millipore KinaseProfiler

[15] = biological target: T15, PAK5 (Homo sapiens, UniProt Q9P286); assay: Kinome profiler screen; type: biochemical; details: at 20,000 nM inhibitor; kinase activity remaining
T15 construct: purchased Millipore KinaseProfiler

[16] = biological target: T16, Pim-2 (Homo sapiens, UniProt Q9P1W9); assay: Kinome profiler screen; type: biochemical; details: at 20,000 nM inhibitor; kinase activity remaining
T16 construct: purchased Millipore KinaseProfiler

[17] = biological target: T17, PKBγ (Homo sapiens, UniProt Q9Y243); assay: Kinome profiler screen; type: biochemical; details: at 20,000 nM inhibitor; kinase activity remaining
T17 construct: purchased Millipore KinaseProfiler

[18] = biological target: T18, PKCη (Homo sapiens, UniProt P24723); assay: Kinome profiler screen; type: biochemical; details: at 20,000 nM inhibitor; kinase activity remaining
T18 construct: purchased Millipore KinaseProfiler

[19] = biological target: T19, Rse (Homo sapiens, UniProt Q06418); assay: Kinome profiler screen; type: biochemical; details: at 20,000 nM inhibitor; kinase activity remaining
T19 construct: purchased Millipore KinaseProfiler

[20] = biological target: T20, Rsk1(r) (Rattus norvegicus, UniProt Q63531); assay: Kinome profiler screen; type: biochemical; details: at 20,000 nM inhibitor; kinase activity remaining
T20 construct: purchased Millipore KinaseProfiler

[21] = biological target: T21, Tie2(R849W) (Homo sapiens, UniProt Q02763, R849W); assay: Kinome profiler screen; type: biochemical; details: at 20,000 nM inhibitor; kinase activity remaining
T21 construct: purchased Millipore KinaseProfiler

[22] = biological target: T22, WNK2 (Homo sapiens, UniProt Q9Y3S1); assay: Kinome profiler screen; type: biochemical; details: at 20,000 nM inhibitor; kinase activity remaining
T22 construct: purchased Millipore KinaseProfiler

[23] = tested on: >290 mammalian kinases; assay: Hierarchal large-scale kinome screen, overall outcome; type: biochemical; details: overall outcome in words
[24] = Aqueous solubility; type: physicochemical; details: for solubility at 24 h: 37 °C, water, thermodynamic from solid
Procedure: Aqueous solubility (logS) and chemical stability were determined as previously described. Briefly, solutions for aqueous solubility (log S) determination were made by gravimetric methods using a Sartorius AG (Germany) BP 211 D analytical balance. Dry borosilicate capillary tubes (Büchi, Switzerland) were weighed and various amounts of compound (ranging from 1.2–1.5 mg) or the hydrochloride hydrate form (ranging from 10–20 mg) were added to the tared tubes, then water added to create solutions ranging in concentrations from […]. Tubes containing the samples were mixed to ensure wetting and incubated at 37°C for 24 h. Aliquots were collected from each tube, centrifuged at 12,000 g-min, and analyzed by HPLC. Concentrations were calculated using area under the peak (260 nm) at the appropriate retention time relative to a standard curve obtained from serial dilutions of each purified compound. […]. The co-solvent was methanol, experimental pH range was 1.7–10.0, temperature was 22±2°C, ionic strength was 0.15 M KCl. Five titrations were used to calculate the pKa using the Yasuda-Shedlovsky technique. […].

[25] = tested on: visual, motor and motivation deficits; assay: Visible platform test; type: in vivo, C57BL/6J mice; details: control test
[26] = tested on: exploratory behavior; assay: Open-field test; type: in vivo, C57BL/6J mice; details: time in and entries into center compartment; control test

T17 sequence (Q9Y243 whole entry): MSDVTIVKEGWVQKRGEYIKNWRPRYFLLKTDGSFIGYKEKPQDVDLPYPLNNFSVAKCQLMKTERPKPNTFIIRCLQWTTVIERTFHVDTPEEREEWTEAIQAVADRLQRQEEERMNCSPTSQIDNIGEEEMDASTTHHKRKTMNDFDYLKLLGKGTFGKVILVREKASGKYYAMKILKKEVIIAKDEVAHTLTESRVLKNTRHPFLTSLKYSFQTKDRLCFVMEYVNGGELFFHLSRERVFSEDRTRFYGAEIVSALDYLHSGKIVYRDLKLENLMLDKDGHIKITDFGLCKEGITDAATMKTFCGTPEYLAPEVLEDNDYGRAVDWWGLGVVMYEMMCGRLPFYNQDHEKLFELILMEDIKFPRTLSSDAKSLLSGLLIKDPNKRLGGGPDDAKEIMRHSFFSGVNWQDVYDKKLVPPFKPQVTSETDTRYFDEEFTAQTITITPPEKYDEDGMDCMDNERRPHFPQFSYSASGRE
T20 sequence (Q63531 whole entry): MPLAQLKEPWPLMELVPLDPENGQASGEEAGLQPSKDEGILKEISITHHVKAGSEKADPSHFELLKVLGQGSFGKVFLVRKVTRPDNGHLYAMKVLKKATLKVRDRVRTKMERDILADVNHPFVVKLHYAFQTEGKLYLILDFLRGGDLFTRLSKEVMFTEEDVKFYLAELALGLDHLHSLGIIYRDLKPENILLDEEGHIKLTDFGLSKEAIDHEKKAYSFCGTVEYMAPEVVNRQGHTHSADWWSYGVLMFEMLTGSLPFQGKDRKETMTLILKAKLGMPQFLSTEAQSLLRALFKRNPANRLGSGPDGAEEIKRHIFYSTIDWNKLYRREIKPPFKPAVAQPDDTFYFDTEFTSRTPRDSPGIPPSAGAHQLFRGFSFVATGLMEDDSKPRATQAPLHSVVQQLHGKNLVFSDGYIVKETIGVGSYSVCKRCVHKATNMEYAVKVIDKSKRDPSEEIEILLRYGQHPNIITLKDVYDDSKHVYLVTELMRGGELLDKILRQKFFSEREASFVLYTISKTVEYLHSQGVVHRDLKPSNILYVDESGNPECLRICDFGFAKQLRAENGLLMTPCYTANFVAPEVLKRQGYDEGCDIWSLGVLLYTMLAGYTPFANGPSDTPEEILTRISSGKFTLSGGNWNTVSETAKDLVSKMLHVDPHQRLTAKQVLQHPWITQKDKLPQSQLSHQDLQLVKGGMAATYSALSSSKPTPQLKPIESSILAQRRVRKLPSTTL
T5 sequence (P49760 whole entry): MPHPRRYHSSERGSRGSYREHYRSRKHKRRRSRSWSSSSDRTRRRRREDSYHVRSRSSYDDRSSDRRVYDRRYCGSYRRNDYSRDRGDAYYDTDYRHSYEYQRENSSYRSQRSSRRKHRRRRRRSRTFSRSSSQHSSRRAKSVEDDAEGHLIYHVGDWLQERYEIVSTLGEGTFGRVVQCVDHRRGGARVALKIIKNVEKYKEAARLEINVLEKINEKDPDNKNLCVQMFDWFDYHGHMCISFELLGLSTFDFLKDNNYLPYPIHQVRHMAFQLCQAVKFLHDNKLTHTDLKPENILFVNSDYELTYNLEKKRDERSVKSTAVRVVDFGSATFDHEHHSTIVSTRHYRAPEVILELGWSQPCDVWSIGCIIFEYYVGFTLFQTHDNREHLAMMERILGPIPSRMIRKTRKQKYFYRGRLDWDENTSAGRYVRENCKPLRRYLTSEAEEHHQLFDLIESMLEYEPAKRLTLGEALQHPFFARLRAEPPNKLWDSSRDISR
T1 sequence (Q13554 whole entry): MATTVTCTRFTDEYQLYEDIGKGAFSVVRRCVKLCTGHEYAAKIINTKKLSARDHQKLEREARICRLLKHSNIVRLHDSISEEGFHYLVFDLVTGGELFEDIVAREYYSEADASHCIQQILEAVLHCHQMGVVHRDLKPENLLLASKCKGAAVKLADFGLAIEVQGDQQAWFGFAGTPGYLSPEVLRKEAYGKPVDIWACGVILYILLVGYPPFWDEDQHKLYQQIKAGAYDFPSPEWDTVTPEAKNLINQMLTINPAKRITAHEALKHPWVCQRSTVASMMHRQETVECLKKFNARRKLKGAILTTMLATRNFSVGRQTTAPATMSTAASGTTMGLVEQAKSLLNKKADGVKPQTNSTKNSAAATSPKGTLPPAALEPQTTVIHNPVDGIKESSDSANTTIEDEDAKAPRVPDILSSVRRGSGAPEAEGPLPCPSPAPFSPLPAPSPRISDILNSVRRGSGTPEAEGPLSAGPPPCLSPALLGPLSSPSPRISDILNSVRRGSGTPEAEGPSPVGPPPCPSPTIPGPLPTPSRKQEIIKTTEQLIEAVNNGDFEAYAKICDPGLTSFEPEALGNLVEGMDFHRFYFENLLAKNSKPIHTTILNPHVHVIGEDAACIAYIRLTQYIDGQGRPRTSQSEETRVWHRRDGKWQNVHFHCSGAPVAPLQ
T21 sequence (Q02763 23-1124 R849W): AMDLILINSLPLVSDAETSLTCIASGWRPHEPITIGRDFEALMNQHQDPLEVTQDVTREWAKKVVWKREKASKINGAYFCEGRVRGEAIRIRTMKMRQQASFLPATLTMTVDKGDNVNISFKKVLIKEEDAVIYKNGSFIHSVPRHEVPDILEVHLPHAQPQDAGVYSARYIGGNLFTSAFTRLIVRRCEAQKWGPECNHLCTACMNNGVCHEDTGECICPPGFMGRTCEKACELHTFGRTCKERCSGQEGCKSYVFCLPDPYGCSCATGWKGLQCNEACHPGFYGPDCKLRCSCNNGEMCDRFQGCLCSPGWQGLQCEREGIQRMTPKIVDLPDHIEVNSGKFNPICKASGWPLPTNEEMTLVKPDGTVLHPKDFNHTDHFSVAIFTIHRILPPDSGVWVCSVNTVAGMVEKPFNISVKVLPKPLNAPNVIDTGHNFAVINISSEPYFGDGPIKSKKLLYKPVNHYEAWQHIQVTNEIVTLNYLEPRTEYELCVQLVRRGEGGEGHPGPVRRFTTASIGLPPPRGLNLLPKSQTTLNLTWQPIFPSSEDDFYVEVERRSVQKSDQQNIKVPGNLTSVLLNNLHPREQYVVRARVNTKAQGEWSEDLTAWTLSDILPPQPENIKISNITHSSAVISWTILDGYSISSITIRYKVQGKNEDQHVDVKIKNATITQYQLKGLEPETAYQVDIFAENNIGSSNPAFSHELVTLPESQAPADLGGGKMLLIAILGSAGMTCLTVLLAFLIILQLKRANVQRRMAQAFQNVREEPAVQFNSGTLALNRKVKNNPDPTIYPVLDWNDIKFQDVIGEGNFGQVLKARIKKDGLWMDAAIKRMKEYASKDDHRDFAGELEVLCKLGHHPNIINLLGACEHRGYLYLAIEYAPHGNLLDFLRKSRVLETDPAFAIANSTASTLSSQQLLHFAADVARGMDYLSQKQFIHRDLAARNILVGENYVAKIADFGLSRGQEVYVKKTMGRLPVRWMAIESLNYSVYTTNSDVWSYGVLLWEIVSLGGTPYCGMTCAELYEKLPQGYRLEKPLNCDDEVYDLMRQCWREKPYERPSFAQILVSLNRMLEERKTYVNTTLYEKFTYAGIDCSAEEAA
T8 sequence (Q92630 whole entry): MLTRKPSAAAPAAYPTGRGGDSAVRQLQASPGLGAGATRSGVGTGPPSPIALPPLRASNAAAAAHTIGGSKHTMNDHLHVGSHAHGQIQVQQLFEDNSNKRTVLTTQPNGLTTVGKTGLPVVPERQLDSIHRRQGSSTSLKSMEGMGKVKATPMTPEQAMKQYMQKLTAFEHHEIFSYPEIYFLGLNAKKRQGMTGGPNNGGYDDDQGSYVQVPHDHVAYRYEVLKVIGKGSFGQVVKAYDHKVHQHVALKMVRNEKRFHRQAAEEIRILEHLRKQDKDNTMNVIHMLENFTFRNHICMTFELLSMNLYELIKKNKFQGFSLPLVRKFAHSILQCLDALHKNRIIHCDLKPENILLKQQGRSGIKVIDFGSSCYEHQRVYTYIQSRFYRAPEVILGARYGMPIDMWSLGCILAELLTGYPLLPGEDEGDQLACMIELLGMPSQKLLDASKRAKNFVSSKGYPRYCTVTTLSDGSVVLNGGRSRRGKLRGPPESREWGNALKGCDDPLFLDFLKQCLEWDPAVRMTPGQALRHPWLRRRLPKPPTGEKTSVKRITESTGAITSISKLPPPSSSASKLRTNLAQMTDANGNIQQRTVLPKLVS
T18 sequence (P24723 whole entry): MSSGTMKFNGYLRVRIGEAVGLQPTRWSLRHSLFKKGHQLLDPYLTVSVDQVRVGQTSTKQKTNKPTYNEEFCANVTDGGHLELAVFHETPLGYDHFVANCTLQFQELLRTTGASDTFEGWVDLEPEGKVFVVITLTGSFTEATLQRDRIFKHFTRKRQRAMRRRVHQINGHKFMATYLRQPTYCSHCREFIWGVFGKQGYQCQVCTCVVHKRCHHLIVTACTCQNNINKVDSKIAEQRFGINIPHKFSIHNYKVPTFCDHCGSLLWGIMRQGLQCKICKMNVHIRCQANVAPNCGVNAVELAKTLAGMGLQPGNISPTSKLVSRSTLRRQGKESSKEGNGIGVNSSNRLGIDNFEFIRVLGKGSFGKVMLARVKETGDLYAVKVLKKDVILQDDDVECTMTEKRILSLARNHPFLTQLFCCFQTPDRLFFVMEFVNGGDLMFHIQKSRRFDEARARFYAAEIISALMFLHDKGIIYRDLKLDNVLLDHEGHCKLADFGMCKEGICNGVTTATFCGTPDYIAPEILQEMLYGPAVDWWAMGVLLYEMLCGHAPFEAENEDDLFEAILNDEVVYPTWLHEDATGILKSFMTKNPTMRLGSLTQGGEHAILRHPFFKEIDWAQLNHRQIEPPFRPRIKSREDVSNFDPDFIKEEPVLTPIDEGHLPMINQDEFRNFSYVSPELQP

Structure (SMILES) | activity at 20 µM [1] | activity at 20 µM [2] | activity at 20 µM [3] | activity at 20 µM [4] | activity at 20 µM [5] | activity at 20 µM [6] | activity at 20 µM [8] | activity at 20 µM [9] | activity at 20 µM [10] | activity at 20 µM [11] | activity at 20 µM [12] | activity at 20 µM [13] | activity at 20 µM [14] | activity at 20 µM [15] | activity at 20 µM [16] | activity at 20 µM [17] | activity at 20 µM [18] | activity at 20 µM [19] | activity at 20 µM [20] | activity at 20 µM [21] | further results
CN(C)c1cc(-c2ccncc2)c(-c2ccc3ccccc3c2)nn1 [MW108, N, N-dimethyl-6-(naphthalen-2-yl)-5-(pyridin-4-yl)pyridazin-3-amine] | 96% | 85% | 101% | 33% | 103% | 93% | 108% | 108% | 49% | 97% | 105% | 90% | 90% | 102% | 93% | 92% | 88% | 117% | 91% | 77% | IC50 [7]: 2860 nM; activity at 20 µM [7]: 11%; activity at 20 µM [22]: 101%; Large Scale Kinome Screen [23]: only p38αMAPK as a potential target; Large Scale Kinome Screen ([23]; listed as MW01-11-108SRM): negative except for p38αMAPK; solubility at 24 h ([24]; Aqueous Solubility (37 °C)): 0.058 mM (≈ 0.0189 mg/mL); solubility at 24 h ([24]; Aqueous Solubility (37 °C), HCl hydrate): 370 mM (≈ 121 mg/mL); Aqueous Solubility (37ºC), HCl hydrate ([24]; 24 h): ~400 mM; visible platform test, speed and time to the platform [25]: No difference was detected between groups; exploratory behavior, open field [26]: No differences in exploratory behavior
CN(C)c1cc(-c2ccncc2)c(-c2cccc3ccccc23)nn1 [MW181, N,N-dimethyl-6-(naphthalen-1-yl)-5-(pyridin-4-yl)pyridazin-3-amine] | 108% | 103% | 101% | 89% | 98% | 111% | 109% | 98% | 56% | 110% | 112% | 103% | 91% | 104% | 103% | 100% | 104% | 109% | 93% | 99% | activity at 20 µM ([7]; at 20,000 nM inhibitor, kinase activity remaining, read-out: % Activity): 86%; activity at 20 µM [22]: 92%; Large Scale Kinome Screen [23]: p38αMAPK, p38βMAPK, and the atypical p38 kinase NLK as primary targets; Large Scale Kinome Screen ([23]; listed as MW01-10-181SRM): negative except for the following MAPKs; Aqueous Solubility (37ºC), HCl hydrate ([24]; hydrochloride hydrate form, 24 h): ~800 mM; solubility at 24 h ([24]; compound (not the salt), 24 h, read-out: Aqueous Solubility (37ºC)): 0.205 mM; solubility at 24 h ([24]; hydrochloride hydrate form, 24 h, read-out: Aqueous Solubility (37ºC), HCl hydrate): 840 mM (≈ 274 mg/mL); visible platform test, speed and time to the platform [25]: No difference was detected between groups; exploratory behavior, open field [26]: No differences in exploratory behavior
